The values that follow are results of earlier work, collected in US11911501B1, “Biocompatible resin composition and method of manufacturing dissolvable microneedles for transdermal delivery using biocompatible resin” (Florida A&M University, priority 2020, dated 2024).

This series deals with clonal SV 40 large T-antigen transfected human pulp-derived cells (tHPC). As to conditions: reference [1].

Take `Cc1cc(C)c(C(=O)P(=O)(c2ccccc2)c2ccccc2)c(C)c1` [TPO, diphenyl(2,4,6-trimethylbenzoyl)phosphine oxide]: the toxicity entry is on record as “cause toxicity”.
